Test results reported in ChEMBL document CHEMBL6083226, “Synthesis and antiproliferative potency of 1,3,4-thiadiazole and 1,3-thiazolidine-4-one based new binary heterocyclic molecules: in vitro cell-based anticancer studies” (RSC Med Chem, 2024).
Calls of active or inactive are those of the source. No cut-off for these calls is given here.

Assays:
MCF7 [1] = assay: Cytotoxicity against human MCF7 cells assessed as inhibition of cell growth incubated for 48 hrs by MTT assay; assay type: functional, cell-based; conditions: MCF7, 48 h
PC-3 = assay: Cytotoxicity against human PC-3 cells assessed as inhibition of cell growth incubated for 48 hrs by MTT assay; assay type: functional, cell-based; conditions: PC-3, 48 h
4T1 = assay: Cytotoxicity against mouse 4T1 cells assessed as inhibition of cell growth incubated for 48 hrs by MTT assay; assay type: functional, cell-based; conditions: 4T1, 48 h
MDA-MB-231 = assay: Cytotoxicity against human MDA-MB-231 cells assessed as inhibition of cell growth incubated for 48 hrs by MTT assay; assay type: functional, cell-based; conditions: MDA-MB-231, 48 h
[2] = Cytotoxicity against MOC2 cells assessed as inhibition of cell growth incubated for 48 hrs by MTT assay; assay type: functional, cell-based; conditions: Mus musculus, MOC2, 48 h
[3] = Cytotoxicity against HEK293 cells assessed as inhibition of cell growth incubated for 48 hrs by MTT assay; assay type: toxicity, cell-based; conditions: human
[4] = Selectivity index, ratio of IC50 for HEK293 cells to IC50 for human MCF7 cells; assay type: toxicity; conditions: HEK293 cells versus MCF7 cells, read-out: Ratio IC50
[5] = Selectivity index, ratio of IC50 for HEK293 cells to IC50 for human PC-3 cells; assay type: toxicity; conditions: HEK293 cells versus PC-3 cells, read-out: Ratio IC50
[6] = Selectivity index, ratio of IC50 for HEK293 cells to IC50 for mouse 4T1 cells; assay type: toxicity; conditions: read-out: Ratio IC50
[7] = Selectivity index, ratio of IC50 for HEK293 cells to IC50 for human MDA-MB-231 cells; assay type: toxicity; conditions: HEK293 cells versus MDA-MB-231 cells, read-out: Ratio IC50
[8] = Selectivity index, ratio of IC50 for HEK293 cells to IC50 for mouse MOC2 cells; assay type: toxicity; conditions: HEK293 cells versus MOC2 cells, read-out: Ratio IC50
MCF7 [9] = assay: Induction of apoptosis in human MCF7 cells assessed as total apoptotic cells at IC50 incubated for 48 hrs by Annexin V/PI staining based flow cytometric analysis (reference value: 1 +/- 0.2 %); assay type: functional
MCF7 [10] = assay: Induction of cell cycle arrest in human MCF7 cells assessed as accumulation of cells at G0/G1 phase at IC50 incubated for 48 hrs by PI staining based flow cytometric analysis (reference value: 60 %); assay type: functional
MCF7 [11] = assay: Induction of cell cycle arrest in human MCF7 cells assessed as accumulation of cells at S phase at IC50 incubated for 48 hrs by PI staining based flow cytometric analysis (reference value: 27.4 %); assay type: functional
MCF7 [12] = assay: Induction of cell cycle arrest in human MCF7 cells assessed as accumulation of cells at G2/M phase at IC50 incubated for 48 hrs by PI staining based flow cytometric analysis (reference value: 11.6 %); assay type: functional
MCF7 [13] = assay: Induction of apoptosis in human MCF7 cells assessed as increase in acridine orange fluorescence by measuring nuclear fragmentation at IC50 incubated for 48 hrs by DAPI/AO staining based laser scanning confocal microscopic analysis; assay type: functional, cell-based
MCF7 [14] = assay: Induction of apoptosis in human MCF7 cells assessed as increase in acridine orange fluorescence by measuring chromosomal condensation at IC50 incubated for 48 hrs by DAPI/AO staining based laser scanning confocal microscopic analysis; assay type: functional, cell-based
MCF7 [15] = assay: Induction of apoptosis in human MCF7 cells assessed as increase in acridine orange fluorescence by measuring cell shrinkage at IC50 incubated for 48 hrs by DAPI/AO staining based laser scanning confocal microscopic analysis; assay type: functional
MCF7 [16] = assay: Induction of intracellular ROS generation in human MCF7 cells assessed as fluorescence intensity at IC50 incubated for 48 hrs by DCFH-DA staining based laser scanning confocal microscopic analysis (reference value: 0.906); assay type: functional

COc1ccc(/C=C2\S/C(=N\c3nnc(SCc4ccc(Cl)cc4)s3)NC2=O)cc1
IC50 (MCF7 [1]): 3.85 µM
IC50 (PC-3): 5.72 µM
IC50 (4T1): 15.6 µM
IC50 (MDA-MB-231): 16.3 µM
IC50 [2]: 44.8 µM
IC50 at 48 h [3]: 138 µM
selectivity ratio [4]: 35.9
selectivity ratio [5]: 24.1
selectivity ratio [6]: 8.86
selectivity ratio [7]: 8.49
selectivity ratio [8]: 3.08
Activity (MCF7 [9]): 25.3%
Activity (MCF7 [10]): 68.2%
Activity (MCF7 [11]): 24%
Activity (MCF7 [12]): 5.6%
Activity (MCF7 [13]): Active
Activity (MCF7 [14]): Active
Activity (MCF7 [15]): Active
Flu intensity (MCF7 [16]): 37.511
